Test results: US5028586A, “Insulin derivatives and pharmaceutical preparations containing these derivatives” (Novo Norkisk A/S, priority 1985, dated 1991)

Tested on: guinea pigs
Experiment: Protracted hypoglycemia in guinea pigs after subcutaneous injection of insulin derivative preparations
Type: in vivo
Protocol: 25 ml of a medium containing 1.6 %(w/v) of glycerol. 0.33 % (w/v) of m-cresol, 1/75 M of sodium phosphate, pH value 7.3, were prepared. The solution was sterilized by filtration. 1.5 mg of human insulin-B21-methyl ester, prepared as described in Example 1, were suspended in 1.0 ml of medium.
4.5 mg of human insulin-A17-methyl ester were dissolved in 2.7 ml of 0.015 M phosphoric acid. 21 mg of sodium chloride and 4.1 μliters of an aqueous solution of 152 mM zinc chloride were added. The solution was sterilized by filtration. The pH value of the solution was adjusted to 8.0 under aseptic conditions with a sterile aqueous solution of sodium hydroxide. The pH value of the solution was then readjusted to 7.3 with sterile hydrochloric acid, and rhombohedral crystals with a mean size of 10 μm were formed with gentle stirring at 21° C. The volume was adjusted to 3 ml with sterile water.
Moreover, a sterile solution of 3 ml of 13.5 mM phosphoric acid in admixture with 21 mg of sodium chloride and 9 μliters of m-cresol was prepared, and the pH value was adjusted to 7.3 with a sterile aqueous solution of sodium hydroxide. The two solutions were combined.
15 mg of human insulin-A4-gln, obtained as described in Example 5, was dissolved in 10 ml of a solution containing 13.5 mM phosphoric acid, 0.3 % m-cresol and 1.6 % glycerol. The solution was sterilized by filtration, and the pH value was adjusted to 9,0 with a sterile solution of sodium hydroxide. The pH value was readjusted to 8.2 with a sterile solution of hydrochloric acid, and human insulin-A4-gln crystallized as rhombohedral crystals with gentle stirring.

Substance: human insulin-A4-gln
- protracted hypoglycemic effect compared with "Insulatard" (subcutaneous injection of crystalline suspension at 0.5 IU/kg, "Insulatard" at 0.5 IU/kg): nearly identical both in timing and amplitude

Substance: human insulin-A17-methyl ester
- biological activity (area below the blood glucose curve) compared with human insulin (dosage 18 μg/kg, crystalline zinc preparation): nearly the same biological activity as human insulin
- protracted insulin action compared with "Insulatard" (dosage 18 μg/kg, crystalline zinc preparation, comparator "Insulatard"): longer than the protracted action of the known injection preparation
- hypoglycemia induced (dosage 18 μg/kg, crystalline zinc preparation, pH 7.3): strongly protracted hypoglycemia

Substance: human insulin-B21-methyl ester
- protracted insulin action compared with "Insulatard" (subcutaneous, zinc-free preparation, comparator standard protamin insulin preparation "Insulatard"): comparable to the hypoglycemia observed after injection of a standard protamin insulin preparation
- hypoglycemia after subcutaneous administration (subcutaneous, zinc-free suspension 1.5 mg in 1.0 ml medium, pH 7.3): protracted hypoglycemia was observed
